In publication PMC6349357, “Computational and experimental analysis of bioactive peptide linear motifs in the integrin adhesome” (PLoS ONE, 2019):
Marks after values point to notes of the source that are not given here.

How the values were obtained:
resting platelets = assay: Platelet aggregation induced by peptide in resting washed platelets (activation); assay type: cell-based, human (healthy volunteers); conditions: for Activation: platelet aggregation in resting platelets after 6 minutes incubation with peptide, pal-peptides 20 μM, tat-peptides 50 μM, optical density, aggregometer, mean, n>=3; for Aggregation before TRAP activation, donor h: replicate donor h; for Aggregation before TRAP activation, donor i: replicate donor i; for Aggregation before TRAP activation, donor j: replicate donor j
How it was run: (§1)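 Aggregation was read by optical density at 37°C under 1100 rpm stirring. Samples were 3x10^5/μl washed human platelets, rested 45 min and supplemented with 1.8 mM calcium chloride. Peptide went in at 2 min, followed 6 min later by TRAP at an experiment-dependent concentration, with 7 min further recording.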

TRAP-activated platelets = assay: Inhibition of TRAP-induced platelet aggregation after pre-incubation with peptide; assay type: cell-based, human (healthy volunteers); conditions: for Aggregation after TRAP, peptide alone 1x (A 1x / B 1x) / Aggregation after TRAP, peptide alone 2x (A 2x / B 2x): TRAP 2 μM after 6 minutes pre-incubation, mean n = 3; for Aggregation after TRAP, peptide alone 1x (A 1x / B 1x): 4 μM pal-peptides, 10 μM tat-peptides; for Aggregation after TRAP, peptide alone 2x (A 2x / B 2x): double concentration of 4 μM (pal) / 10 μM (tat); for Aggregation after TRAP activation, donor h: replicate donor h; for Aggregation after TRAP activation, donor i: replicate donor i; for Aggregation after TRAP activation, donor j: replicate donor j
How it was run: as §1

[1] = system: tyrosine phosphorylation in platelets; assay: Phosphotyrosine western blot (4G10) of platelets treated with peptide; assay type: cell-based, human (healthy volunteers); set-up: key to Phospho: R: in resting platelets; A: after TRAP activation; conditions: phosphorylation changes associated with peptide treatment; pal 20 μM, tat 50 μM, TRAP 4 μM
Procedure: A platelet concentration of 3x10^5 /μl was used when performing standard aggregations and a concentration of 1x10^6 /μl was used for sample preparation for western blot analysis. The extent of platelet aggregation was measured by quantifying the optical density of the samples using the Bio-Data PAP-8 aggregometer (platelet aggregation profiler, Horsham, PA, USA). A temperature of 37°C was maintained and samples were stirred using magnets spinning at 1100 rpm. 200 μl of washed platelets was added to each aggregation tube. Different volumes of buffer, peptide and TRAP were added to achieve the desired concentrations. Peptide/buffer was added to each well after two minutes. TRAP, with a final concentration depending on the experiment, was added 6 minutes later and data was collected for an additional 7 minutes.
After the aggregation step, tubes were immediately placed on ice. 27 μl of lysis buffer was then added and the tube was vortexed vigorously. Lysates were left on ice for one hour and vortexed frequently. Proteins were then centrifuged at 14,000 rcf for 10 minutes to remove debris. Samples were then mixed with 2x sample buffer. 50 μl each sample was added to 50 μl of sample buffer. The protein was then denatured by heating to 95°C for 5 minutes. 10 μl of lysate was kept for protein quantification. All samples and lysates were frozen at -80°C.
The Bradford assay was then performed on the lysates to determine protein concentration. Protein concentrations were measured using the Bio-Rad DC Protein Assay. A calibration was created using samples containing a known concentration of bovine serum albumin. These were prepared in advance by sequential dilutions with final concentrations of 1.5mg/ml, 1mg/ml, 0.8mg/ml, 0.6mg/ml, 0.4mg/ml, 0.2mg/ml, 0mg/ml. Samples were then dispensed into a 96 well plate and the Bio-Rad DC reagents were added as described in the protocol. Samples were left to rest for 15 minutes and were then read using 690 0.15 mode on the Wallac plate reader. A standard curve was calculated from the standard samples of known concentration and the y = ax+b equation was used to determine the concentration of the other samples.
Sodium Dodecyl Sulfate Polyacrylamide Gel Electrophoresis (SDS-PAGE) was performed to separate proteins by molecular weight. Polyacrylamide gels were prepared (see Reagents section). Samples or molecular markers were loaded in volumes to give 20 μg of protein. The gels were then run for approximately 80 minutes or until the samples reached the end of the gel. The proteins were then transferred to polyvinylidene difluoride (PVDF) membranes using a Bio-Rad Wet Blot Transfer Cell apparatus. During the transfer the membranes were submerged in 1x transfer buffer (10% 10x transfer buffer, 70% deionised water and 20% methanol). Transfer was performed either overnight at 40 volts at 4°C, or at 100 volts for 1 hour cooled with an ice block. After the transfer the membranes were blocked for 1 hour using 3% bovine albumin serum (BSA) dissolved in TBS-T. Membranes were incubated with 4G10 antibody with a 1:1000 dilution. Unbound primary antibody was washed off with TBS-T three times for 5 minutes each. Membranes were then incubated with anti-mouse IgG secondary antibody (Millipore) with a dilution of 1:30,000. Membranes were submerged in chemiluminescence ECL solution (Thermo Scientific). They were then measured using the western blot developer UVP. One image was taken every 80 seconds for 40 minutes. Numeric data was extracted from selected blots using ImageJ.

[2] = assay type: physicochemical
Procedure: Peptides were stored in powder form at -80°C. Prior to use, they were left at room temperature for one hour. They were then mixed with a specific volume of deionised water to bring them to a 1mM concentration and were then aliquoted and frozen at -80°C. They were thawed a single time before use and discarded after an experiment. Peptides which were not soluble in deionised water (pal-APTNEFYA, pal-LEEDDEEGE, pal-TNITYRGT and pal-KLLITIHDRKE) were dissolved in a 10% DMSO and 90% deionised water solution (leading to a final concentration of 0.2% DMSO when combined with platelets, see below). These peptides were further diluted during platelet aggregations.

[3] = platelet aggregation induced by 4 μM TRAP in platelets pre-incubated with peptide (low value = inhibition), pal-peptides 20 μM, tat-peptides 50 μM, mean, n>=3
[4] = TRAP 4 μM, pal 20 μM, tat 50 μM

| Substance | Activation (resting platelets; unit assumed) [%] | Aggregation before TRAP activation, donor h (resting platelets; pal 20 μM, tat 50 μM) | Aggregation before TRAP activation, donor i (resting platelets; pal 20 μM, tat 50 μM) | Aggregation before TRAP activation, donor j (resting platelets; pal 20 μM, tat 50 μM) | Aggregation after TRAP, peptide alone 1x (A 1x / B 1x) (TRAP-activated platelets) | Aggregation after TRAP, peptide alone 2x (A 2x / B 2x) (TRAP-activated platelets) | Platelet aggregation remaining after TRAP (low = inhibition) (TRAP-activated platelets; [3]) | Aggregation after TRAP activation, donor h (TRAP-activated platelets; [4]) | Aggregation after TRAP activation, donor i (TRAP-activated platelets; [4]) | Aggregation after TRAP activation, donor j (TRAP-activated platelets; [4]) | Phospho [1] | further results |
| --- | --- | --- | --- | --- | --- | --- | --- | --- | --- | --- | --- | --- |
| TLELDRLMASLSDFRVQNHLP-tat-(NH2) [TGFB1I1_LD-tat, TGFB1I1 LD motif peptide with C-terminal tat] | 3 | 3 | 4 | 4 | 67.33 | 65.67 | 66 | 74 | 59 | 67 | R | – |
| pal-TNITYRGT [pal-ITGB3_tail, N-terminally palmitylated ITGB3 tail peptide] | 3 | – | – | – | – | – | 71 | – | – | – | – | Aggregation before TRAP activation, donor d (resting platelets; replicate donor d, pal 20 μM, tat 50 μM): 2; Aggregation before TRAP activation, donor f (resting platelets; replicate donor f, pal 20 μM, tat 50 μM): 5; Aggregation before TRAP activation, donor g (resting platelets; replicate donor g, pal 20 μM, tat 50 μM): 3; Aggregation after TRAP activation, donor d (TRAP-activated platelets; replicate donor d, TRAP 4 μM, pal 20 μM, tat 50 μM): 74; Aggregation after TRAP activation, donor f (TRAP-activated platelets; replicate donor f, TRAP 4 μM, pal 20 μM, tat 50 μM): 77; Aggregation after TRAP activation, donor g (TRAP-activated platelets; replicate donor g, TRAP 4 μM, pal 20 μM, tat 50 μM): 63; Solubility in deionised water [2]: not soluble |
| pal-KVGFFKR-(NH2) [pal-ITGA2B_JM, N-terminally palmitylated ITGA2B juxtamembrane peptide KVGFFKR] | – | 30 | 11 | 12 | 37.33 | 49.33 | 50 | 52 | 36 | 64 | R | Activation, 5μM (resting platelets; S3 Table, peptide 5 μM, n=3, unit assumed): 66%; Activation, 20μM (resting platelets; S3 Table, peptide 20 μM, n=3, unit assumed): 62%; Activation (resting platelets): 17 ^*; Platelet aggregation remaining after TRAP (low = inhibition) (TRAP-activated platelets; S3 Table, peptide 5 μM, aggregation after TRAP, n=3): 73; Platelet aggregation remaining after TRAP (low = inhibition) (TRAP-activated platelets; S3 Table, peptide 20 μM, aggregation after TRAP, n=3): 69 |
